# Assay results taken from patent US5428051A, “Methods of combating pneumocystis carinii pneumonia and compounds useful therefor” (priority 1992, dated 1995).
# Like-named read-outs stand apart in the source and are kept apart here.
# Key:
# [1] = test system: Pneumocystis carinii; assay: Treatment of Pneumocystis carinii pneumonia in rats: histologic scoring of lung cysts (GMS stain); assay type: in vivo, Sprague-Dawley rats; design: key to Mean Histologic Score: lung cyst score: 0.5 = <10 cysts, 4 = >50% of lung tissue involved; settings: daily i.v., 14 days; for No. of animals with histologic score 0.5: 0.5 = less than 10 cysts per two sections; for No. of animals with histologic score 1: 1 = <10% of lung tissue involved; for No. of animals with histologic score 2: 2 = 10 to 25% of lung tissue involved; for No. of animals with histologic score 3: 3 = 26 to 50% of lung tissue involved; for No. of animals with histologic score 4: 4 = >50% of lung tissue involved; for Mean Histologic Score: score scale 0.5-4
# Procedure: (§1) Induction and Treatment of Pneumocystis carinii in Sprague-Dawley Rats
# (§2) Male Sprague-Dawley rats, barrier raised, non-certified virus free, weighing 150-200 g were obtained from Hilltop Laboratories and housed individually. Animals were begun on a low (8%) protein diet (ICN Biomedicals, Cincinnati, Ohio) and drinking water containing tetracycline (0.5 mg/ml) and dexamethasone (1.0 μg/ml). This treatment was given for the next 8 weeks, monitoring fluid intake daily and weighing animals weekly. Dilutions of the drinking solution were made when animals consumed too much fluid so as to prevent cortisone poisoning. At the beginning of the sixth week animals were divided into groups of eight or more animals each and the test compounds were administered daily by i.v. injection into the tail vein at the indicated dose for the next 14 days or orally by gavage for the next 14 days.
# All animals were sacrificed at the end of the eighth week by chloroform inhalation and the right lung was inflated in situ with 10% formalin and fixed for histologic examination. The fixed lung tissue was sectioned longitudinally and stained with Grocott's methenamine silver (GMS) stain which selectively stains the walls of th P. carinii cysts. Stained sections were coded and each section was scored by 2 examiners using a blinded protocol. Sections were read and scored according to modification of known procedures (P. Walzer et al., Antimicrob. Agents. Chemother. 32: 896-905 (1988)) as follows: 0.5=less than 10 cysts counted per two fully examinec sections; 1=scattered cysts with <10% of lung tissue involved; 2=scattered cysts with limited intense focal involvement and 10 to 25% of lung tissue involved; 3=scattered cysts with numerous intense areas of focal involvement and 26 to 50% of lung tissue involved; 4=cysts found throughout the tissue with numerous very intense focal areas of involvement having >50% of lung tissue involved.
# The Chi square goodness of fit was used to calculate the p values of each test group when compared to the saline-treated and pentamidine-treated groups. The statistical analysis was carried out using the StatView 512+ software package (Brainpower, Inc., Calabasas, Calif.) on a Macintosh II computer.
# [2] = test system: Pneumocystis carinii; assay: Treatment of Pneumocystis carinii pneumonia in rats: cyst count in lung homogenate (cresyl violet); assay type: in vivo, Sprague-Dawley rats; settings: for response vs control in vivo at 10 mg/kg / response vs control in vivo at 5 mg/kg: Pneumocystis carinii, iv, 336 h, read-out: Cysts/g Lung (% of Control)
# Procedure: as §1, §2
# The left lung was weighed, ground through a #60 wire mesh, and suspended 1:10 (w/v) in Hank's balanced salts solution without cations (HBSS-) and 10 mM β-mercaptoethanol (β-Me). Slides were prepared by spotting 5 μl of lung homogenate diluted 1:10 in HBSS- with β-Me and allowed to air dry. The slides were stained with cresyl violet and the cysts were counted using a blinded protocol. The number of cysts/g of original lung tissue was calculated and the groups were reported as the percent of saline-treated controls.
# [3] = Toxicity of the test compounds in rats (graded by local, clinical and histologic criteria); assay type: in vivo, Sprague-Dawley rats; settings: for Toxicity: 10.0 mg/kg, daily i.v., 14 days
# Procedure: as §2
# [4] = test system: Giardia lamblia; assay: In vitro activity against Giardia lamblia ([3H]-thymidine incorporation); assay type: cell-based, strain WB (ATCC #30957); settings: 42 hours, 37° C., read-out: IC50 ± S.D. In Vitro Antigiaridal Activity
# Procedure: In vitro Biological Activity of Bis-Benzimidazoles Against Giardia lamblia
# In brief, Giardia lamblia, strain WB (ATCC #30957) was grown to early log phase in filter sterilized Keister's medium with 10% heat-inactivated fetal bovine serum and 50 μg/ml ampicillin and 50 μg/ml gentamicin sulfate. Assay medium was modified Keister's medium plus 5% heat-inactivated fetal bovine serum. The assay procedure was carried out in accordance with the following steps:
# (1) (0 hours) Serial dilutions of diamidines suspended in assay medium were prepared in duplicate rows of a 96-well microtiter plate and 2.5×10^4 trophozoites were added to each well. Plates were placed in an anaerobic chamber, gassed with nitrogen, and incubated at 37° C.
# (2) (24 hours) Added [methyl-^3 H]-thmidine (1-10 Ci/mmol) to yield 1.5-2 μCi/well.
# (3) (42 hours) Harvested cells with multimash-type cell harvester onto glass microfiber paper. Washed and dried filters were counted using a scintillation counter to determine the incorporation of [^3 H]-thymidine.
# (4) Data on uptake of [^3 H]-thymidine were fitted to a logistic-logarithmic concentration response function by a non-linear regression method and drug concentrations required to inhibit 50% incorporation of [^3 H]-thymidine were determined.
# [5] = test system: Pneumocystis carinii; assay: Anti-PCP activity in rats; assay type: in vivo, Sprague-Dawley rats
# [6] = patients, intramuscular and intravenous routes; cited from earlier work
# [7] = 10.0 mg/kg, daily i.v., 14 days, vs. saline-treated controls
# [8] = daily i.v., 14 days, vs. saline-treated controls
compound,measurement,setting,value
"1,4-bis[5-amidino-2-benzimidazolyl]propane [Compound 7]",No. of animals with histologic score 0.5,[1]; 10.0 mg/kg,10 animals
same,No. of animals with histologic score 1,[1]; 10.0 mg/kg,2 animals
same,No. of animals with histologic score 2,[1]; 10.0 mg/kg,0 animals
same,No. of animals with histologic score 3,[1]; 10.0 mg/kg,0 animals
same,No. of animals with histologic score 4,[1]; 10.0 mg/kg,0 animals
same,Mean Histologic Score,[1]; 10.0 mg/kg,0.6
same,Cysts/g Lung (% of Control),[2]; [7],1.67 % of Control
same,Toxicity,[3],0
same,IC50,[4],8.15 ± 6.9 µM
"N=C(N)c1ccc2nc(Cc3nc4ccc(C(=N)N)cc4[nH]3)[nH]c2c1 [Compound 1, bis[5-amidino-2-benzimidazolyl]methane]",No. of animals with histologic score 0.5,[1]; 10.0 mg/kg,7 animals
same,No. of animals with histologic score 1,[1]; 10.0 mg/kg,1 animals
same,No. of animals with histologic score 2,[1]; 10.0 mg/kg,0 animals
same,No. of animals with histologic score 3,[1]; 10.0 mg/kg,0 animals
same,No. of animals with histologic score 4,[1]; 10.0 mg/kg,0 animals
same,Mean Histologic Score,[1]; 10.0 mg/kg,0.6
same,Toxicity,[3],0
same,IC50,[4]; Giardia duodenalis,307 ± 28.3 µM
"N=C(N)c1ccc2nc(CCc3nc4ccc(C(=N)N)cc4[nH]3)[nH]c2c1 [Compound 3, 1,2-bis[5-amidino-2-benzimidazolyl]ethane]",No. of animals with histologic score 0.5,[1]; 10.0 mg/kg,7 animals
same,No. of animals with histologic score 1,[1]; 10.0 mg/kg,3 animals
same,No. of animals with histologic score 2,[1]; 10.0 mg/kg,0 animals
same,No. of animals with histologic score 3,[1]; 10.0 mg/kg,0 animals
same,No. of animals with histologic score 4,[1]; 10.0 mg/kg,0 animals
same,Mean Histologic Score,[1]; 10.0 mg/kg,0.7
same,response vs control in vivo at 10 mg/kg,[2]; [7],2.05%
same,IC50,[4]; Giardia duodenalis,0.33 ± 0.15 µM
"N=C(N)c1ccc2nc(CCCc3nc4ccc(C(=N)N)cc4[nH]3)[nH]c2c1 [Compound 5, 1,3-bis[5-amidino-2-benzimidazolyl]propane]",No. of animals with histologic score 0.5,[1]; 10.0 mg/kg,0 animals
same,No. of animals with histologic score 1,[1]; 10.0 mg/kg,1 animals
same,No. of animals with histologic score 2,[1]; 10.0 mg/kg,1 animals
same,No. of animals with histologic score 3,[1]; 10.0 mg/kg,7 animals
same,No. of animals with histologic score 4,[1]; 10.0 mg/kg,3 animals
same,Mean Histologic Score,[1]; 10.0 mg/kg,3.0
same,response vs control in vivo at 10 mg/kg,[2]; [7],64.6%
same,IC50,[4]; Giardia duodenalis,32.5 ± 6.4 µM
c1cc2[nH]c(CCCc3nc4cc(C5=NCCN5)ccc4[nH]3)nc2cc1C1=NCCN1 [Compound 6],No. of animals with histologic score 0.5,[1]; 10.0 mg/kg,1 animals
same,No. of animals with histologic score 1,[1]; 10.0 mg/kg,7 animals
same,No. of animals with histologic score 2,[1]; 10.0 mg/kg,3 animals
same,No. of animals with histologic score 3,[1]; 10.0 mg/kg,1 animals
same,No. of animals with histologic score 4,[1]; 10.0 mg/kg,0 animals
same,Mean Histologic Score,[1]; 10.0 mg/kg,1.4
same,response vs control in vivo at 10 mg/kg,[2]; [7],9.23%
same,IC50,[4]; Giardia duodenalis,49.5 ± 7.8 µM
c1cc2[nH]c(CCCCc3nc4cc(C5=NCCN5)ccc4[nH]3)nc2cc1C1=NCCN1 [Compound 8],No. of animals with histologic score 0.5,[1]; 10.0 mg/kg,12 animals
same,No. of animals with histologic score 1,[1]; 10.0 mg/kg,0 animals
same,No. of animals with histologic score 2,[1]; 10.0 mg/kg,0 animals
same,No. of animals with histologic score 3,[1]; 10.0 mg/kg,0 animals
same,No. of animals with histologic score 4,[1]; 10.0 mg/kg,0 animals
same,Mean Histologic Score,[1]; 10.0 mg/kg,0.5
same,response vs control in vivo at 10 mg/kg,[2]; [7],0.07%
same,toxicity relative to the parent compound,[3]; vs. pentamidine (parent compound),significantly less toxic than the parent compound
same,IC50,[4]; Giardia duodenalis,14.5 ± 3.5 µM
same,activity against PCP when administered orally,"[5]; oral, daily dose of 25 mg/kg",exhibited some activity against PCP
same,potency as an anti-PCP agent relative to pentamidine,[5]; vs. pentamidine,over four times more potent
"N=C(N)c1ccc2nc(CCCCCCCCc3nc4ccc(C(=N)N)cc4[nH]3)[nH]c2c1 [Compound 9, 1,8-bis[5-amidino-2-benzimidazolyl]octane]",No. of animals with histologic score 0.5,[1]; 5.0 mg/kg,1 animals
same,No. of animals with histologic score 1,[1]; 5.0 mg/kg,0 animals
same,No. of animals with histologic score 2,[1]; 5.0 mg/kg,8 animals
same,No. of animals with histologic score 3,[1]; 5.0 mg/kg,3 animals
same,No. of animals with histologic score 4,[1]; 5.0 mg/kg,0 animals
same,Mean Histologic Score,[1]; 5.0 mg/kg,2.1
same,response vs control in vivo at 5 mg/kg,[2]; [8],31.8%
same,IC50,[4]; Giardia duodenalis,0.04 ± 0.01 µM
"N=C(N)c1ccc2nc(/C=C/c3nc4ccc(C(=N)N)cc4[nH]3)[nH]c2c1 [Compound 10, trans-1,2-bis[5-amidino-2-benzimidazolyl]ethene]",No. of animals with histologic score 0.5,[1]; 5.0 mg/kg,1 animals
same,No. of animals with histologic score 1,[1]; 5.0 mg/kg,5 animals
same,No. of animals with histologic score 2,[1]; 5.0 mg/kg,5 animals
same,No. of animals with histologic score 3,[1]; 5.0 mg/kg,1 animals
same,No. of animals with histologic score 4,[1]; 5.0 mg/kg,0 animals
same,Mean Histologic Score,[1]; 5.0 mg/kg,1.5
same,response vs control in vivo at 5 mg/kg,[2]; [8],2.14%
"N=C(N)c1ccc(OCCCCCOc2ccc(C(=N)N)cc2)cc1 [Pentamidine, reference compound]",No. of animals with histologic score 0.5,[1]; 10.0 mg/kg,12 animals
same,No. of animals with histologic score 1,[1]; 10.0 mg/kg,38 animals
same,No. of animals with histologic score 2,[1]; 10.0 mg/kg,17 animals
same,No. of animals with histologic score 3,[1]; 10.0 mg/kg,4 animals
same,No. of animals with histologic score 4,[1]; 10.0 mg/kg,0 animals
same,response vs control in vivo at 10 mg/kg,[2],3.13%
N=C(N)c1ccc(OCCCCCOc2ccc(C(=N)N)cc2)cc1 [pentamidine isethionate],side effects / fatalities,[6],"Some fatalities have been attributed to severe hypotension, hypoglycemia, and cardiac arrhythmias"
